Measured values: patent publication US7834005B2, “Pyrrolobenzodiazepine derivatives, compositions comprising the same and methods related thereto” (The United States of America as represented by the …, priority 2003, dated 2010)
Like-named read-outs stand apart in the source and are kept apart here.

Key:
DU-145 = experiment: 60-cell-line screen: DU-145 (Prostate); assay type: cell-based
NCI-H23 = experiment: 60-cell-line screen: NCI-H23 (Non-Small Cell Lung); assay type: cell-based
COLO 205 = experiment: 60-cell-line screen: COLO 205 (Colon); assay type: cell-based
SNB-19 = experiment: 60-cell-line screen: SNB-19 (Central Nervous System); assay type: cell-based; conditions: read-out: LC50 (the source's name)
MOLT-4 = experiment: 60-cell-line screen: MOLT-4 (Leukemia); assay type: cell-based
HCT-15 = experiment: 60-cell-line screen: HCT-15 (Colon); assay type: cell-based; conditions: read-out: LC50 (the source's name)
SK-OV-3 = experiment: 60-cell-line screen: SK-OV-3 (Ovarian); assay type: cell-based
Excerpt: (§1) The concentration effects of the compound for various cancer cell lines are summarized in Tables 2-10, wherein GI50 is the drug concentration required to inhibit the growth of 50% of the cells, TGI is the drug concentration required for total growth inhibition, and LC50 is the drug concentration required to kill 50% of the cells.

NCI-H226 = experiment: 60-cell-line screen: NCI-H226 (Non-Small Cell Lung); assay type: cell-based; conditions: read-out: LC50 (the source's name)
T-47D = experiment: 60-cell-line screen: T-47D (Breast); assay type: cell-based; conditions: read-out: LC50 (the source's name)
NCI-H460 = experiment: 60-cell-line screen: NCI-H460 (Non-Small Cell Lung); assay type: cell-based; conditions: read-out: LC50 (the source's name)
U251 = experiment: 60-cell-line screen: U251 (Central Nervous System); assay type: cell-based; conditions: read-out: LC50 (the source's name)
SNB-75 = experiment: 60-cell-line screen: SNB-75 (Central Nervous System); assay type: cell-based
CCRF-CEM = experiment: 60-cell-line screen: CCRF-CEM (Leukemia); assay type: cell-based
NCI-H322M = experiment: 60-cell-line screen: NCI-H322M (Non-Small Cell Lung); assay type: cell-based; conditions: read-out: LC50 (the source's name)
MDA-MB-231/ATCC = experiment: 60-cell-line screen: MDA-MB-231/ATCC (Breast); assay type: cell-based
Excerpt: as §1

RPMI-8226 = experiment: 60-cell-line screen: RPMI-8226 (Leukemia); assay type: cell-based
OVCAR-8 = experiment: 60-cell-line screen: OVCAR-8 (Ovarian); assay type: cell-based
Excerpt: as §1

SN12C = experiment: 60-cell-line screen: SN12C (Renal); assay type: cell-based
SF-539 = experiment: 60-cell-line screen: SF-539 (Central Nervous System); assay type: cell-based; conditions: read-out: LC50 (the source's name)
Excerpt: as §1

EKVX = experiment: 60-cell-line screen: EKVX (Non-Small Cell Lung); assay type: cell-based; conditions: read-out: LC50 (the source's name)
BT-549 = experiment: 60-cell-line screen: BT-549 (Breast); assay type: cell-based; conditions: read-out: LC50 (the source's name)
Excerpt: as §1

M14 = experiment: 60-cell-line screen: M14 (Melanoma); assay type: cell-based; conditions: read-out: LC50 (the source's name)
UACC-62 = experiment: 60-cell-line screen: UACC-62 (Melanoma); assay type: cell-based
HOP-62 = experiment: 60-cell-line screen: HOP-62 (Non-Small Cell Lung); assay type: cell-based; conditions: read-out: LC50 (the source's name)
SF-268 = experiment: 60-cell-line screen: SF-268 (Central Nervous System); assay type: cell-based; conditions: read-out: LC50 (the source's name)
Excerpt: as §1

PC-3 = experiment: 60-cell-line screen: PC-3 (Prostate); assay type: cell-based
NCI/ADR-RES = experiment: 60-cell-line screen: NCI/ADR-RES (Breast); assay type: cell-based
Excerpt: as §1

HOP-92 = experiment: 60-cell-line screen: HOP-92 (Non-Small Cell Lung); assay type: cell-based; conditions: read-out: LC50 (the source's name)
OVCAR-4 = experiment: 60-cell-line screen: OVCAR-4 (Ovarian); assay type: cell-based
Excerpt: as §1

SK-MEL-28 = experiment: 60-cell-line screen: SK-MEL-28 (Melanoma); assay type: cell-based; conditions: read-out: LC50 (the source's name)
OVCAR-5 = experiment: 60-cell-line screen: OVCAR-5 (Ovarian); assay type: cell-based
Excerpt: as §1

SF-295 = experiment: 60-cell-line screen: SF-295 (Central Nervous System); assay type: cell-based; conditions: read-out: LC50 (the source's name)
Excerpt: as §1

KM12 = experiment: 60-cell-line screen: KM12 (Colon); assay type: cell-based; conditions: read-out: LC50 (the source's name)
Excerpt: as §1

UACC-257 = experiment: 60-cell-line screen: UACC-257 (Melanoma); assay type: cell-based
MALME-3M = experiment: 60-cell-line screen: MALME-3M (Melanoma); assay type: cell-based
HS 578T = experiment: 60-cell-line screen: HS 578T (Breast); assay type: cell-based; conditions: read-out: LC50 (the source's name)
Excerpt: as §1

786-0 = experiment: 60-cell-line screen: 786-0 (Renal); assay type: cell-based
TK-10 = experiment: 60-cell-line screen: TK-10 (Renal); assay type: cell-based
OVCAR-3 = experiment: 60-cell-line screen: OVCAR-3 (Ovarian); assay type: cell-based
Excerpt: as §1

IGROV1 = experiment: 60-cell-line screen: IGROV1 (Ovarian); assay type: cell-based
MDA-N = experiment: 60-cell-line screen: MDA-N (Breast); assay type: cell-based
SW-620 = experiment: 60-cell-line screen: SW-620 (Colon); assay type: cell-based; conditions: read-out: LC50 (the source's name)
Excerpt: as §1

A549/ATCC = experiment: 60-cell-line screen: A549/ATCC (Non-Small Cell Lung); assay type: cell-based; conditions: read-out: LC50 (the source's name)
Excerpt: as §1

MDA-MB-435 = experiment: 60-cell-line screen: MDA-MB-435 (Breast); assay type: cell-based
SK-MEL-2 = experiment: 60-cell-line screen: SK-MEL-2 (Melanoma); assay type: cell-based
ACHN = experiment: 60-cell-line screen: ACHN (Renal); assay type: cell-based
CAKI-1 = experiment: 60-cell-line screen: CAKI-1 (Renal); assay type: cell-based
UO-31 = experiment: 60-cell-line screen: UO-31 (Renal); assay type: cell-based
NCI-H522 = experiment: 60-cell-line screen: NCI-H522 (Non-Small Cell Lung); assay type: cell-based; conditions: read-out: LC50 (the source's name)
[1] = read-out: LC50 (the source's name)

Compound: C=C1C[C@H]2C(O)Nc3cc(OCCCOc4cc5c(cc4OC)C(=O)N4CC(=C)C[C@H]4C(O)N5)c(OC)cc3C(=O)N2C1 (stereo partly shown) [Compound 16]
- LC50 (DU-145): −6 Log10[C] (M)
- CC50 (DU-145; [1]): 1000 nM
- LC50 (NCI-H23): −7.17 Log10[C] (M)
- CC50 (NCI-H23; [1]): 67.6 nM
- LC50 (COLO 205): −6.6 Log10[C] (M)
- CC50 (COLO 205; [1]): 251 nM
- CC50 (SNB-19): 1000 nM
- LC50 (MOLT-4): −7.15 Log10[C] (M)
- CC50 (MOLT-4; [1]): 70.8 nM
- CC50 (HCT-15): 1000 nM
- LC50 (SK-OV-3): −6 Log10[C] (M)
- LC50 (SK-OV-3; read-out: LC50): 1000 nM
- CC50 (NCI-H226): 1000 nM
- CC50 (T-47D): 1000 nM
- CC50 (NCI-H460): 1000 nM
- LC50 (HL-60(TB); Leukemia): −7.55 Log10[C] (M)
- CC50 (HL-60(TB); read-out: LC50, Leukemia): 28.2 nM
- CC50 (U251): 1000 nM
- LC50 (SNB-75): −6.33 Log10[C] (M)
- CC50 (SNB-75; [1]): 468 nM
- LC50 (CCRF-CEM): −6 Log10[C] (M)
- CC50 (CCRF-CEM; [1]): 1000 nM
- CC50 (NCI-H322M): 1000 nM
- LC50 (MDA-MB-231/ATCC): 1000 nM
- LC50 (RPMI-8226): −7.08 Log10[C] (M)
- CC50 (RPMI-8226; [1]): 83.2 nM
- LC50 (OVCAR-8): −6 Log10[C] (M)
- CC50 (OVCAR-8; [1]): 1000 nM
- LC50 (SN12C): −6 Log10[C] (M)
- CC50 (SN12C; [1]): 1000 nM
- CC50 (SF-539): 1000 nM
- CC50 (EKVX): 1000 nM
- CC50 (BT-549): 1000 nM
- CC50 (M14): 1000 nM
- LC50 (UACC-62): −8.15 Log10[C] (M)
- CC50 (UACC-62; [1]): 7.1 nM
- CC50 (HOP-62): 1000 nM
- CC50 (SF-268): 1000 nM
- LC50 (PC-3): −6 Log10[C] (M)
- CC50 (PC-3; [1]): 1000 nM
- LC50 (NCI/ADR-RES): 1000 nM
- CC50 (HOP-92): 1000 nM
- LC50 (OVCAR-4): −6 Log10[C] (M)
- CC50 (OVCAR-4; [1]): 1000 nM
- CC50 (SK-MEL-28): 1000 nM
- LC50 (OVCAR-5): −6 Log10[C] (M)
- CC50 (OVCAR-5; [1]): 1000 nM
- CC50 (SF-295): 1000 nM
- CC50 (KM12): 1000 nM
- LC50 (UACC-257): 1000 nM
- LC50 (MALME-3M): −7.15 Log10[C] (M)
- CC50 (MALME-3M; [1]): 70.8 nM
- CC50 (HS 578T): 1000 nM
- LC50 (786-0): −6 Log10[C] (M)
- CC50 (786-0; [1]): 1000 nM
- LC50 (TK-10): −6 Log10[C] (M)
- LC50 (TK-10; read-out: LC50): 1000 nM
- LC50 (OVCAR-3): −6 Log10[C] (M)
- CC50 (OVCAR-3; [1]): 1000 nM
- LC50 (IGROV1): −6 Log10[C] (M)
- LC50 (IGROV1; read-out: LC50): 1000 nM
- LC50 (MDA-N): −7.24 Log10[C] (M)
- CC50 (MDA-N; [1]): 57.5 nM
- CC50 (SW-620): 1000 nM
- CC50 (A549/ATCC): 1000 nM
- LC50 (MDA-MB-435): −7.07 Log10[C] (M)
- CC50 (MDA-MB-435; [1]): 85.1 nM
- LC50 (SK-MEL-2): −7.14 Log10[C] (M)
- CC50 (SK-MEL-2; [1]): 72.4 nM
- LC50 (ACHN): −6 Log10[C] (M)
- CC50 (ACHN; [1]): 1000 nM
- LC50 (CAKI-1): −6 Log10[C] (M)
- CC50 (CAKI-1; [1]): 1000 nM
- LC50 (UO-31): −6 Log10[C] (M)
- CC50 (UO-31; [1]): 1000 nM
- CC50 (NCI-H522): 1000 nM
